The subject of series [1] is SR. Put plainly: cells. The series is classed as cell-based. The settings on record: Homo sapiens, 10 μM, supplementary table 3a-g, read-out: growth inhibition % (GI %).
Series [2] deals with RXF 393. Put plainly: cells. The series is classed as cell-based. The conditions noted are these: Homo sapiens; RXF 393; 10 μM; supplementary table 3a-g; read-out: growth inhibition % (GI %).
For series [3], the system named is NCI-H226. Put plainly: cells. The series is classed as cell-based. The settings on record: Homo sapiens; NCI-H226; 10 μM; supplementary table 3a-g; read-out: growth inhibition % (GI %).
The subject of series [4] is UO-31. The series is described as follows: cells. The series is classed as cell-based. The conditions noted are these: Homo sapiens; UO-31; 10 μM; supplementary table 3a-g; read-out: growth inhibition % (GI %).
Series [5] concerns K-562. Put plainly: cells. The series is classed as cell-based. The conditions noted are these: Homo sapiens, K562; K-562; 10 μM; supplementary table 3a-g; read-out: growth inhibition % (GI %).
The subject of series [6] is HOP-92. The series is described as follows: cells. Format: cell-based. The settings on record: Homo sapiens; HOP-92; 10 μM; supplementary table 3a-g; read-out: growth inhibition % (GI %).
Series [7] relates to panel of 60 tumour cell lines. The series is described as follows: NCI 60 cell line antiproliferative screening (SRB), whole panel or subpanels (means, ranges, words). The conditions noted are these: Homo sapiens, 60 cell, mean over the cell line panel; 10 μM; supplementary table 3a-g; read-out: Mean inhibition. The series is classed as cell-based, human.
For series [8], the system named is caspase-3. Put plainly: Caspase-3 activation (ELISA) in breast HS 578T cancer cell line. Format: cell-based, human. On the procedure: Apoptosis is triggered by the activation of caspases, particularly caspase-3, which is an […] caspase responsible for apoptosis. Therefore, the induction of apoptosis by compound 6d was examined by the evaluation of caspase-3 activation in breast HS 578T cancer cell line. The effect of erlotinib as well as untreated cell line was used as positive and negative control, respectively. […] . […]
incubated for 15 minutes in the dark at room temperature. FacsCalibur was used to assess cell fluorescence after incubation (BD Biosciences, USA). The results were represented using dot-plot graphs.
1.1.5. Caspase-3 enzyme assay
The level of the apoptotic marker caspase-3 was measured using Invitrogen ELISA Kit Catalog # KHO1091. The procedure of the used kit was performed according to the manufacturer’s instructions. Let all components to reach room temperature before use. Gently combine all liquid reagents prior to use. Add 100 μL of the standard diluent buffer to the zero standard wells. Add 100 μL of standards and controls or diluted samples to the appropriate microtiter wells. Incubate for 2 h at room temperature. Pipette 100 μL of Caspase-3 (Active) detection antibody solution into each well. […] Read the absorbance of each well at 450 nm. Read the plate within 2 h after adding the stop solution. […] Read the concentrations for unknown samples and controls from the standard curve.

The record followed here is publication PMC9518264, “Design and synthesis of novel quinazolinone-based derivatives as EGFR inhibitors with antitumor activity” (Journal of Enzyme Inhibition and Medicinal Chemistry, 2022).

As a reminder, the inhibition is the drop in the measured response relative to a control, in per cent. As a reminder, the melting point is the temperature, or range, at which the solid turns liquid. `O=c1c2ccccc2nc(NN=Cc2ccc(N3CCOCC3)cc2)n1-c1ccccc1` [3f, 2–(2-(4-morpholinobenzylidene)hydrazinyl)-3-phenylquinazolin-4(3H)-one] yielded a melting point of 242 to 244 °C. Further, the inhibition at 10 µM in [1] was < 15%. Also, the inhibition at 10 µM in series [2] was < 15%. Besides, in series [3], the inhibition at 10 µM is < 15%. In addition, the inhibition at 10 µM in [4] is < 15%. In addition, the inhibition at 10 µM in series [5] is < 15%. Also, the inhibition at 10 µM in [6] was < 15%. Also, the inhibition at 10 µM in series [7] was < 0%.
In the case of `C#Cc1cccc(Nc2ncnc3cc(OCCOC)c(OCCOC)cc23)c1` [Erlotinib, erlotinib, reference compound], the “increase of caspase-3 level compared to negative control” value in series [8] was 8.78 fold.
As to `O=c1c2ccccc2nc(NN=Cc2ccc(Oc3ccc(Cl)cc3)cc2)n1-c1ccc(Cl)cc1` [3d, 2–(2-(4–(4-chlorophenoxy)benzylidene)hydrazinyl)-3–(4-chlorophenyl)quinazolin-4(3H)-one], the melting point lay in the range of 212 to 214 °C. Besides, the inhibition at 10 µM in series [1] is < 15%. Also, the inhibition at 10 µM in series [3] is < 15%. Further, in series [4], the inhibition at 10 µM was < 15%. Further, the inhibition at 10 µM in [5] was < 15%. In series [6], the inhibition at 10 µM was < 15%. Moreover, the inhibition at 10 µM in [7] is < 0%.
`CN1CCN(c2ccc(C=NNc3nc4ccccc4c(=O)n3-c3ccccc3)cc2)CC1` [3g, 2–(2-(4–(4-methylpiperazin-1-yl)benzylidene)hydrazinyl)-3-phenylquinazolin-4(3H)-one] yielded a melting point of 208 to 210 °C. Also, in series [1], the inhibition at 10 µM was < 15%. Moreover, the inhibition at 10 µM in [2] turned out to be 25.1%. The inhibition at 10 µM in series [3] was < 15%. Also, the inhibition at 10 µM in series [4] was determined as 21%. In addition, the inhibition at 10 µM in [5] is < 15%. The inhibition at 10 µM in series [6] stood at 16%. Further, the inhibition at 10 µM in series [7] is < 0%.
`O=c1c2ccccc2nc(NN=Cc2ccc(Oc3ccc(Br)cc3)cc2)n1-c1ccccc1` [3b, 2–(2-(4–(4-bromophenoxy)benzylidene)hydrazinyl)-3-phenylquinazolin-4(3H)-one] displayed a melting point of 198 to 200 °C. For the same compound, the inhibition at 10 µM in series [1] is < 15%. Further, the inhibition at 10 µM in series [4] is < 15%. For the same compound, the inhibition at 10 µM in series [5] is < 15%. Besides, the inhibition at 10 µM in series [7] was < 0%.
The compound `O=c1c2ccccc2nc(NN=Cc2ccc(Oc3ccc(Cl)cc3)cc2)n1-c1ccccc1` [3a, 2–(2-(4–(4-chlorophenoxy)benzylidene)hydrazinyl)-3-phenylquinazolin-4(3H)-one] returned a melting point of 158 to 164 °C. Also, the inhibition at 10 µM in series [1] was < 15%. Besides, the inhibition at 10 µM in [2] is < 15%. For the same compound, the inhibition at 10 µM in series [3] was < 15%. For the same compound, the inhibition at 10 µM in series [4] is < 15%. The inhibition at 10 µM in series [5] is < 15%. Also, the inhibition at 10 µM in series [6] was < 15%. For the same compound, in series [7], the inhibition at 10 µM was < 0%.
Consider `COc1ccc(Oc2ccc(C=NNc3nc4ccccc4c(=O)n3-c3ccccc3)cc2)cc1` [3c, 2–(2-(4–(4-methoxyphenoxy)benzylidene)hydrazinyl)-3-phenylquinazolin-4(3H)-one], for which the melting point was in the range of 185 to 188 °C. Further, the inhibition at 10 µM in series [1] is 16%. For the same compound, the inhibition at 10 µM in series [2] was < 15%. In addition, in series [3], the inhibition at 10 µM came to 15.2%. For the same compound, in series [4], the inhibition at 10 µM came out at 21.6%. The inhibition at 10 µM in series [5] is 24.8%. Besides, in series [6], the inhibition at 10 µM was < 15%. Also, the inhibition at 10 µM in [7] is 1.6%.
In turn, `O=c1c2ccccc2nc(NN=Cc2ccc(N3CCCCC3)cc2)n1-c1ccccc1` [3e, 3-phenyl-2–(2-(4-(piperidin-1-yl)benzylidene)hydrazinyl)quinazolin-4(3H)-one] gave a melting point of 160 to 166 °C. In addition, the inhibition at 10 µM in series [1] was < 15%. In series [2], the inhibition at 10 µM is < 15%. Also, the inhibition at 10 µM in series [3] is < 15%. In [4], the inhibition at 10 µM was < 15%. Also, in [5], the inhibition at 10 µM was < 15%. Besides, the inhibition at 10 µM in series [6] was < 15%. Besides, in [7], the inhibition at 10 µM is < 0%.
